One compound from US4968671A, “Therapeutic agents for ischemic heart diseases” (Yamanouchi Pharmaceutical Co., Ltd., priority 1987, dated 1990) can be followed below.

One data set has as its system mice. As to the kind of experiment: acute toxicity (LD50), intraperitoneal injection to mice. In kind it is in vivo.
The test system of another data set is dogs. As to the kind of experiment: inhibitory action on ventricular extra systole on reperfusion of the occluded coronary artery in anesthetized open-chest dogs. Type of data set: in vivo. The settings on record: 60 min coronary occlusion then 20 min reperfusion, 300 mg/kg i.v. + 10 mg/kg/min i.v., mean ± standard deviation, P < 0.05 vs control group (35.9 ± 10.2). How it is done: The inhibitory action of glutathione monoisopropyl ester on ventricular extra systole occurred when the occluded coronary artery was reperfused in dogs was tested with the following method.
Measurement was carried out by partially modifying Gibsons' method (J. Cardiovasc. Pharmacol., 5, 517-524, 1983). Dogs (Mongrel, female and male, 9-18 kg) were anesthetized with pentobarbital, the chest was opened under artificial respiration. And then the left coronary artery anterior descending segmental branch was occluded for 60 minutes. Thereafter, a reperfusion was carried out for 20 minutes and then blood pressure and heart rate as well as the heart surface electrocardiogram were measured.
The glutathione monoisopropyl ester (GE) was intravenously administered in a single dose of 300 mg/kg 30 minutes after the coronary artery occlusion and continuous injection was carried out in the amount of 10 mg/kg/min, i.v., until the completion of this test from 40 minutes after the coronary artery occlusion. The effect of an agent was evaluated by the number of the ventricular extra systole for a minute, which had been occured during the time period of reperfusion.

On to `CC(C)OC(=O)CNC(=O)[C@H](CS)NC(=O)CC[C@H](N)C(=O)O` [GE, isopropyl r-L-glutamyl-L-cysteinyl glycinate], for which the “acute toxicity (LD50)” value in the data set on mice is on record as “approximately 5.3 g/kg”. For the same compound, the “Number of ventricular extra systole” value in the data set with dogs worked out at 10.0 ± 5.6 counts/min.
